Measured values reported in patent US20080293785A1, “SUBSTITUTED BENZOTHIAZOLE KINASE INHIBITORS” (priority 2006, published 2008).
Read-outs that look alike come from different tables or passages of the source.

Columns and labels:
CDK1:Cyclin-B = target: T1, CDK1:Cyclin-B (Homo sapiens, UniProt P06493); test: CDK1 Screening Assay; format: biochemical; settings: 10 μM ATP, biotinylated histone-H1 peptide substrate, 33P-γ-ATP FlashPlate; read-out: Kinase IC50 CDK1
T1 construct: purchased New England Biolabs, Beverly, Mass; 6020; host or cells: insect cells
Experimental: (§1) A kinase reaction mixture was prepared containing 50 mM Tris.HCl pH=8, 10 mM MgCl2, 0.1 mM Na3PO4, 1 mM DTT, 10 μM ATP, 0.025 μM biotinylated histone-H1 peptide substrate and 0.2 μCuries per well ^33P-γ-ATP (2000-3000 Ci/mmol). 70 μL of the kinase reaction mixture was dispensed into the well of a streptavidin coated FlashPlate™ (Cat. # SMP103, NEN, Boston, Mass.). Then 1 μL of test compound stock in 100% DMSO was added to the wells resulting in a final concentration of 1% DMSO in the reaction well with a 100 μL final reaction well volume.
(§2) The CDK1:Cyclin-B protein was diluted in 50 mM Tris.HCl pH=8.0, 0.1% BSA at a concentration of 1 ng per μL and 30 μL (30 ng enzyme per test well) was added to each well to initiate the reaction. The reaction was incubated for one hour at 30° C. At the end of the one hour incubation, the reaction was terminated by aspirating the mixture from the plate and washing the wells twice with PBS containing 100 mM EDTA. The histone-H1 biotinylated peptide substrate became immobilized on the Flashplate™ and the incorporation of ^33P-γ-ATP was measured by reading the plate on a scintillation counter. Inhibition of the enzymatic activity of CDK1 was measured by observing a reduced amount of ^33P-γ-ATP incorporated into the immobilized peptide.
The CDK1 kinase used was isolated from insect cells expressing both the human CDK1 catalytic subunit and its positive regulatory subunit cyclin B (New England Biolabs, Beverly, Mass., Cat. # 6020).
(§3) An IC50 listed as >0.1, >1, >10 or >100 means no observed 50% inhibition at the indicated test concentration. […] ND means the compound was not tested in the assay specified.

CDK2:Cyclin A = target: T2, CDK2:Cyclin A (Homo sapiens, UniProt P24941); test: CDK2 Screening Assay; format: biochemical; settings: 10 μM ATP, biotinylated histone-H1 peptide substrate, 33P-γ-ATP FlashPlate; read-out: Kinase IC50 CDK2
T2 construct: purchased Upstate Biotech, Lake Placid, N.Y
Experimental: as §1
as §2, with “CDK2:Cyclin A” for “CDK1:Cyclin-B”, “CDK2” for “CDK1”
The CDK2 kinase used was complexed with cyclin A and is commercially available (Upstate Biotech, Lake Placid, N.Y.).
as §3

VEGF-R2 kinase domain = VEGF-R2 kinase domain (Rattus norvegicus, UniProt O08775); test: VEGF-R2 Screening Assay; format: biochemical; settings: 10 μM ATP, biotinylated PLC1 peptide substrate, 33P-γ-ATP FlashPlate; read-out: Kinase IC50 VEGFR
Experimental: as §1, with “biotinylated” for “biotinylated histone-H1”, “0.8” for “0.2”
The soluble rat tyrosine kinase containing an N-terminal 6×HIS tag was diluted in 50 mM Tris.HCl pH=8.0, 0.1% BSA at a concentration of 5 ng per μL and 30 μL (150 ng enzyme per test well) was added to each well to initiate the reaction. The reaction was incubated for one hour at 30° C. At the end of the one hour incubation, the reaction was terminated by aspirating the reaction mixture from the plate and washing the wells twice with PBS containing 100 mM EDTA. The PLC1 biotinylated peptide substrate became immobilized on the Flashplate™ and the incorporation of ^33P-γ-ATP was measured by reading the plate on a scintillation counter. Inhibition of the enzymatic activity of the VEGF-R was measured by observing a reduced amount of ^33P-γ-ATP incorporated into the immobilized peptide.
The VEGF-R kinase assay was carried out using the CDK kinase assay procedure except that the enzyme was replaced with the VEGF-R2 fusion protein containing a polyhistidine tag at the N-terminus followed by amino acids 786-1343 of the rat VEGF-R2 kinase domain (GenBank Accession #U93306).
as §3

[1] = system: HeLa cervical adenocarcinoma; test: Inhibition of cell proliferation (14C-thymidine incorporation), HeLa; format: cell-based
Experimental: (§4) The ability of a test compound to inhibit the proliferation of cell growth was determined by measuring incorporation of ^14C-labelled thymidine into newly synthesized DNA within the cells. This method was used on American Type Culture Collection (ATCC, Virginia) cell lines derived from carcinomas originating from several tissues such as HeLa cervical adenocarcinoma (ATCC Cat. #CCL-2), A375 malignant melanoma (ATCC Cat. #CRL-1619) and HCT-116 colon carcinoma (ATCC Cat. #CCL-247).
(§5) The carcinoma cells were trypsinized and counted. The cells (3000-8000 count) were added to each well of a 96-well CytoStar tissue culture treated scintillating microplate (Amersham #RPNQ0160) in complete medium (100 μL) and the plate was incubated in complete medium for 24 hrs at 37° C. in an […] containing 5% CO2.
Test compound (1 μL) in 100% DMSO was added to the plate test-wells with DMSO only added to control-wells. The plate is incubated in complete medium for a second 24 hr period at 37° C. in an atmosphere containing 5% CO2.
An aliquot of a solution of Methyl ^14C-thymidine (56 mCi/mmol) (NEN #NEC568 or Amersham #CFA532) in complete medium (20 uL to provide […]) was also added to each well and the plate was incubated for a third 24 hr period at 37° C. in an atmosphere containing 5% CO2.
The plate contents were discarded and the plate was washed twice with PBS (200 μL), then PBS (200 μL) was added to each well. The plate was sealed and the degree of methyl ^14C-thymidine incorporation is quantified on a Packard Top Count.
An IC50 value shown as >10 or >100 means that 50% inhibition was not observed at the highest concentration.

HCT-116 colon carcinoma = test: Inhibition of cell proliferation (14C-thymidine incorporation), HCT116; format: cell-based; settings: Homo sapiens, HCT116, 14C-thymidine incorporation
Experimental: as §4, §5
(§6) Test compound (1 μL) in 100% DMSO was added to the plate test-wells with DMSO only added to control-wells. The plate is incubated in complete medium for a second 24 hr period at 37° C. in an atmosphere containing 5% CO2. […]
(§7) The plate contents were discarded and the plate was washed twice with PBS (200 μL), then PBS (200 μL) was added to each well. The plate was sealed and the degree of methyl ^14C-thymidine incorporation is quantified on a Packard Top Count. […]

A375 malignant melanoma = test: Inhibition of cell proliferation (14C-thymidine incorporation), A375; format: cell-based; settings: Homo sapiens, A-375; A375, 14C-thymidine incorporation
Experimental: as §4, §5, §6, §7

Chain of VEGF-R2 kinase domain (O08775 786-1343): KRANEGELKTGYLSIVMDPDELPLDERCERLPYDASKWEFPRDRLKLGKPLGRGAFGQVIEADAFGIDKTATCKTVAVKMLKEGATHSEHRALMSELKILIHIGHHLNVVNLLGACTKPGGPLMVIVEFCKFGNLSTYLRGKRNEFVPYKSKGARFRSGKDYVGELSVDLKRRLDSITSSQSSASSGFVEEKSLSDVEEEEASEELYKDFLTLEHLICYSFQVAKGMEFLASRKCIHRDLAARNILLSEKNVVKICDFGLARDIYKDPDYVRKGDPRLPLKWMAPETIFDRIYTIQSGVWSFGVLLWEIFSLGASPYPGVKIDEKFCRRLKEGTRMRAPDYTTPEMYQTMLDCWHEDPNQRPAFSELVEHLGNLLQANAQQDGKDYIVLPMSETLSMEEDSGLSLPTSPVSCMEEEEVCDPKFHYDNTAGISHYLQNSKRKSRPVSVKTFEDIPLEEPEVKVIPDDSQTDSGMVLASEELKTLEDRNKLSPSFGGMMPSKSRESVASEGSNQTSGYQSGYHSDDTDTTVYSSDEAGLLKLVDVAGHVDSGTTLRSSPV
T1 sequence (P06493 whole entry): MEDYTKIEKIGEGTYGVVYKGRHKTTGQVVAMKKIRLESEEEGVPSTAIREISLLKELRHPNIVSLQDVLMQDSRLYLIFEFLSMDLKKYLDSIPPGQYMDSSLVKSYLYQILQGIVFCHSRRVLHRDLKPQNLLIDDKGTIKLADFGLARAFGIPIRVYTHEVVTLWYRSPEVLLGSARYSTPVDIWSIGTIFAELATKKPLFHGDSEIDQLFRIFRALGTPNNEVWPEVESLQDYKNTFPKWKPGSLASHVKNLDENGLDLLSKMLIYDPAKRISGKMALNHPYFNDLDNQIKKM
T1 sequence (P14635 whole entry partner): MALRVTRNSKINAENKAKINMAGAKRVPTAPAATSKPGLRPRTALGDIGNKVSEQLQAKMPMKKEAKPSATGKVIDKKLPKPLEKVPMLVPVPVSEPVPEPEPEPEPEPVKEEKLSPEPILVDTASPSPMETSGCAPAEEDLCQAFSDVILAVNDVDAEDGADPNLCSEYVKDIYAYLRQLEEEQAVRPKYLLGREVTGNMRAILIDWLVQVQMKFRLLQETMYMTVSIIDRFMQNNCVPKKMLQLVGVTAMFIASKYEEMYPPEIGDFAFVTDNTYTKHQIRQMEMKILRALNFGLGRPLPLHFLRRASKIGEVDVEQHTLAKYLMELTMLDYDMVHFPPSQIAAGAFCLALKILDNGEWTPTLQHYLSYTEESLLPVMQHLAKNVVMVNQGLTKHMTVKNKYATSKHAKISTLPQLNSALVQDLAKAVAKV

Row | Compound | IC50 (CDK1:Cyclin-B) [µM] | IC50 (CDK2:Cyclin A) [µM] | IC50 (VEGF-R2 kinase domain) [µM] | IC50 ([1]; Homo sapiens) [µM] | IC50 (HCT-116 colon carcinoma) [µM] | IC50 (A375 malignant melanoma) [µM] | IC50 [1] [µM]
1 | Cc1ccc(F)c(C(=O)Nc2cccc3sc(Nc4ccccc4)nc23)c1F [Cpd 48, 2,6-difluoro-3-methyl-N-(2-phenylamino-benzothiazol-4-yl)-benzamide] | 1.55 | 0.156 | 4.58 | 20.6 | 5.04 | 10.4 | 
2 | O=C(Nc1ccc(Cl)c(Cl)c1)Nc1cccc2nc(Nc3ccccc3)sc12 [Cpd 4, 1-(3,4-dichloro-phenyl)-3-(2-phenylamino-benzothiazol-7-yl)-urea] | > 100 | > 100 | > 100 | > 10 |  |  | 
3 | O=C(Nc1ccc2nc(Nc3ccccc3)sc2c1)Nc1c(F)cccc1F [Cpd 2, 1-(2,6-difluoro-phenyl)-3-(2-phenylamino-benzothiazol-6-yl)-urea] | > 100 | > 100 | > 100 | > 100 |  |  | 
4 | O=C(Nc1c(F)cccc1F)Nc1cccc2sc(Nc3ccccc3)nc12 [Cpd 6, 1-(2,6-difluoro-phenyl)-3-(2-phenylamino-benzothiazol-4-yl)-urea] | > 100 | 5.76 | > 100 | 72.7 |  |  | 
5 | 1-(2,6-difluoro-phenyl)-3-(2-phenylamino-benzothiazol-7-yl)-urea [Cpd 1] | > 100 | > 100 | ~100 |  |  |  | > 10
6 | O=C(Nc1ccccc1)Nc1cccc2sc(Nc3ccccc3)nc12 [Cpd 5, 1-phenyl-3-(2-phenylamino-benzothiazol-4-yl)-urea] | > 100 | > 100 | > 100 | > 10 |  |  | 
7 | Cc1ccc(F)c(C(=O)Nc2cccc3sc(Nc4ccc(N5CCN(C)CC5)cc4)nc23)c1F [Cpd 49, 2,6-difluoro-3-methyl-N-{2-[4-(4-methyl-piperazin-1-yl)-phenylamino]-benzothiazol-4-yl}-benzamide] | 2.71 | 0.679 | ≥ 100 |  |  |  | 
8 | O=C(Nc1ccccc1)Nc1cccc2nc(Nc3ccccc3)sc12 [Cpd 3, 1-phenyl-3-(2-phenylamino-benzothiazol-7-yl)-urea] | > 100 | > 100 | > 100 | > 10 |  |  | 
9 | O=C(Cc1ccccc1)Nc1cccc2sc(Nc3ccccc3)nc12 [Cpd 51, 2-phenyl-N-(2-phenylamino-benzothiazol-4-yl)-acetamide] | > 100 | 1.19 | > 100 |  |  |  | 
10 | N#Cc1cccc(C(=O)Nc2cccc3sc(Nc4ccccc4)nc23)c1 [Cpd 38, 3-cyano-N-(2-phenylamino-benzothiazol-4-yl)-benzamide] | > 100 | 11 | > 100 |  |  |  | 
11 | Nc1cccc(C(=O)Nc2cccc3sc(Nc4ccccc4)nc23)c1 [Cpd 20, 3-amino-N-(2-phenylamino-benzothiazol-4-yl)-benzamide] | > 100 | 5.28 | > 100 |  |  |  | 
12 | O=C(Nc1cccc2sc(Nc3ccccc3)nc12)c1ccccn1 [Cpd 27, pyridine-2-carboxylic acid (2-phenylamino-benzothiazol-4-yl)-amide] | > 100 | 12 | > 100 |  |  |  | 
13 | O=S(=O)(Nc1cccc2sc(Nc3ccccc3)nc12)c1ccccc1 [Cpd 30, N-(2-phenylamino-benzothiazol-4-yl)-benzenesulfonamide] | 11.3 | 1.94 | > 100 |  |  |  | 
14 | O=C(Nc1cccc2sc(Nc3ccccc3)nc12)c1ccc2ccccc2c1 [Cpd 40, naphthalene-2-carboxylic acid (2-phenylamino-benzothiazol-4-yl)-amide] | > 100 | > 100 | > 100 |  |  |  | 
15 | CC(C)(C)NC(=O)Nc1cccc2sc(Nc3ccccc3)nc12 [Cpd 60, 1-tert-butyl-3-(2-phenylamino-benzothiazol-4-yl)-urea] | > 100 | > 100 | > 100 |  |  |  | 
16 | O=C(Cc1cc(F)cc(F)c1)Nc1cccc2sc(Nc3ccccc3)nc12 [Cpd 23, 2-(3,5-difluoro-phenyl)-N-(2-phenylamino-benzothiazol-4-yl)-acetamide] | > 10 | 2.12 | > 100 |  |  |  | 
17 | O=C(Nc1cccc2sc(Nc3ccccc3)nc12)c1ccccc1 [Cpd 9, N-(2-phenylamino-benzothiazol-4-yl)-benzamide] | > 100 | 17.5 | > 100 |  |  |  | 
18 | CC(=O)N1CCC(C(=O)Nc2cccc3sc(Nc4ccccc4)nc23)CC1 [Cpd 25, 1-acetyl-piperidine-4-carboxylic acid (2-phenylamino-benzothiazol-4-yl)-amide] | 36.4 | 6.22 | > 100 |  |  |  | 
19 | O=C(Nc1cccc2sc(Nc3ccccc3)nc12)c1cc(C(F)(F)F)cc(C(F)(F)F)c1 [Cpd 31, N-(2-phenylamino-benzothiazol-4-yl)-3,5-bis-trifluoromethyl-benzamide] | 55.3 | 3.03 | > 100 |  |  |  | 
